According to ChEMBL document CHEMBL5465560, “Selectivity Literature for EUbOPEN Chemogenomic Library” (2024):
Substitutions are numbered along the chain they refer to.

Experiments:
Conditions in all cases: at 1 µM
[1] = test system: Receptor-type tyrosine-protein kinase FLT3 (Homo sapiens), P36888 [UNDEFINED MUTATION]; assay: (§1) Selectivity interaction (KinomeScan (DiscoverX)) EUB0000311b FLT3
[2] = test system: T1, Receptor-type tyrosine-protein kinase FLT3 (Homo sapiens), P36888 [D835V]; assay: as §1
T1 sequence (whole entry): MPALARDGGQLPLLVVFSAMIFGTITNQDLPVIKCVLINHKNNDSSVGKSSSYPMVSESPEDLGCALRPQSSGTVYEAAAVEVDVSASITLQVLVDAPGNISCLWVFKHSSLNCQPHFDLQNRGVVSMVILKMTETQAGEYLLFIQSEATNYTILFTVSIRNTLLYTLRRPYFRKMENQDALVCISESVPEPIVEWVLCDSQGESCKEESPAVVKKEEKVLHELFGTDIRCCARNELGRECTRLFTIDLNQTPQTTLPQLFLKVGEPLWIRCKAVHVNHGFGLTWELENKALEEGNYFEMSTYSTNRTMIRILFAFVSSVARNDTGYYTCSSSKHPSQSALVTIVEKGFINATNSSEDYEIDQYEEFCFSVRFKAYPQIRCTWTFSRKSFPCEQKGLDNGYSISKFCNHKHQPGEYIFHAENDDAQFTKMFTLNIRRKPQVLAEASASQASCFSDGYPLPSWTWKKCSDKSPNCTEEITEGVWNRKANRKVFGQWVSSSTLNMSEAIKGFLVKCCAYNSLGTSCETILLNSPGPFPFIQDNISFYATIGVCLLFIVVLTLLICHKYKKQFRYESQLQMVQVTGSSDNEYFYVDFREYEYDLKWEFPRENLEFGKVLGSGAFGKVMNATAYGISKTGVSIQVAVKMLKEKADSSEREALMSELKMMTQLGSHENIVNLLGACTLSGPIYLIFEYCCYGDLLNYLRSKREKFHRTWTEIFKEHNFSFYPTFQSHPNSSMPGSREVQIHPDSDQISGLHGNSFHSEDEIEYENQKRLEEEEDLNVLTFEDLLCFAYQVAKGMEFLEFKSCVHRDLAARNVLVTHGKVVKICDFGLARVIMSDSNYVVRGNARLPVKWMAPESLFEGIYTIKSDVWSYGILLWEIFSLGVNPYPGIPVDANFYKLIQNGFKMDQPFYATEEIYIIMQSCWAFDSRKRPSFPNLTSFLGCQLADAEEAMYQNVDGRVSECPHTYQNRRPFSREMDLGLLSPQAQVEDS

[3] = molecular target: Receptor-type tyrosine-protein kinase FLT3 (Homo sapiens) (UniProt P36888); assay: as §1
[4] = test system: T2, Receptor-type tyrosine-protein kinase FLT3 (Homo sapiens), P36888 [N841I]; assay: as §1
T2 sequence (whole entry): T1 sequence (whole entry) with V835D, N841I

[5] = test system: T3, Receptor-type tyrosine-protein kinase FLT3 (Homo sapiens), P36888 [D835Y]; assay: as §1
T3 sequence (whole entry): T1 sequence (whole entry) with V835Y

- % of control [1]: 11%
- % of control [2]: 3.2%
- % of control [3]: 16%
- % of control [4]: 0%
- % of control [5]: 2.5%
Compound: CCc1ccccc1C(=O)Nc1n[nH]c2c(C)c(F)c(C3C(C#N)=C(C)N(C)C(C)=C3C#N)cc12 [BAY-3827]
